The values below come from patent publication US20210369677A1, “SMALL MOLECULE ACTIVATORS OF POLYCYSTIN-2 (PKD2) AND USES THEREOF” (Northwestern University, priority 2020, published 2021).

For orientation: EC50 means the concentration needed to bring the measured effect to its halfway point.

“Also recorded” adds a separate entry of the source.

For assay [1], the target named is T1, human polycystin-2 CTD EF hand (I704-P797) (Homo sapiens, UniProt Q13563).
T1 construct: The C-terminal fragment of the human polycystin-2 (I704-P797) was cloned into the PET19b vector; 10xHis (N); made in house; host or cells: E. coli BL21 (DE3)
T1 sequence (Q13563 704-797): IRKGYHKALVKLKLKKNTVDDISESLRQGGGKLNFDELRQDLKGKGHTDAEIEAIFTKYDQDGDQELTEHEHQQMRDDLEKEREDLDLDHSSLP
Kind of assay: Isothermal titration calorimetry of divalent ions into the CTD of polycystin-2. It is filed as binding. The protocol:
CTD protein expression, purification, and isothermal titration calorimetry. The C-terminal fragment of the human polycystin-2 (I704-P797) was cloned into the PET19b vector and transformed into BL21 (DE3) competent cells (New England Biolabs) for bacterial expression. The translated peptide has a 10×His tag on its N-terminus. The alanine mutants of the individual calcium-coordinating residues were created and transformed as well. Cells were grown in 2XYT broth in a 37° C. shaking incubator until OD600 reaches ˜0.6, and were induced by 0.4 mM isopropyl 1-thio-β-D-galactopyranoside and grown for another 4 hours. Cells were harvested and resuspended in Buffer A (500 mM NaCl, 20 mM Tris/HCl, pH 7.4), 5% glycerol, 0.25 mM EDTA pH 8.0, 1 mM PMSF (RPI), 25 μg/ml of lysozyme and DNase I (GoldBio). The suspension was then lysed by sonication and clarified by centrifugation (30,000×g for 0.5 h). Filtered supernatant was loaded into a HisPur cobalt Superflow agarose column (ThermoScientific). The column was washed with 10 column volume (CV) of buffer A, 5 CV of buffer A+5 mM imidazole, and finally eluted with 3 CV of buffer A+100 mM imidazole. The eluate was desalted by dialysis in 150 mM NaCl, 20 mM Tris/HCl, 20 mM imidazole, pH 7.4. SDS-PAGE gel confirmed the expression, solubility, and purity of the peptide. All of our solutions were formulated with ultrapure water (Milli-Q® IQ 7005 water purification system), that has less than 0.29 ng/L calcium ions present. The binding affinity is recorded based on the heat difference between the sample cell and reference cell measured by MicroCal iTC200. […] The cells were insulated by an adiabatic jacket held at 25° C. The heat of dilution of Ca^2+ was not subtracted from data sets, as the signal was prohibitively small for several of the mutant channels. The exothermic energy of the bimolecular interaction between Ca^2+ and peptide during each injection was analyzed by integrating the change in heat to generate the binding isotherm. […]
(In general: ITC needs no label: the signal is the heat of the interaction.)

Assay [2] has as its target T2, PKD2 (Homo sapiens, UniProt Q13563).
T2 sequence (Q13563 1-968): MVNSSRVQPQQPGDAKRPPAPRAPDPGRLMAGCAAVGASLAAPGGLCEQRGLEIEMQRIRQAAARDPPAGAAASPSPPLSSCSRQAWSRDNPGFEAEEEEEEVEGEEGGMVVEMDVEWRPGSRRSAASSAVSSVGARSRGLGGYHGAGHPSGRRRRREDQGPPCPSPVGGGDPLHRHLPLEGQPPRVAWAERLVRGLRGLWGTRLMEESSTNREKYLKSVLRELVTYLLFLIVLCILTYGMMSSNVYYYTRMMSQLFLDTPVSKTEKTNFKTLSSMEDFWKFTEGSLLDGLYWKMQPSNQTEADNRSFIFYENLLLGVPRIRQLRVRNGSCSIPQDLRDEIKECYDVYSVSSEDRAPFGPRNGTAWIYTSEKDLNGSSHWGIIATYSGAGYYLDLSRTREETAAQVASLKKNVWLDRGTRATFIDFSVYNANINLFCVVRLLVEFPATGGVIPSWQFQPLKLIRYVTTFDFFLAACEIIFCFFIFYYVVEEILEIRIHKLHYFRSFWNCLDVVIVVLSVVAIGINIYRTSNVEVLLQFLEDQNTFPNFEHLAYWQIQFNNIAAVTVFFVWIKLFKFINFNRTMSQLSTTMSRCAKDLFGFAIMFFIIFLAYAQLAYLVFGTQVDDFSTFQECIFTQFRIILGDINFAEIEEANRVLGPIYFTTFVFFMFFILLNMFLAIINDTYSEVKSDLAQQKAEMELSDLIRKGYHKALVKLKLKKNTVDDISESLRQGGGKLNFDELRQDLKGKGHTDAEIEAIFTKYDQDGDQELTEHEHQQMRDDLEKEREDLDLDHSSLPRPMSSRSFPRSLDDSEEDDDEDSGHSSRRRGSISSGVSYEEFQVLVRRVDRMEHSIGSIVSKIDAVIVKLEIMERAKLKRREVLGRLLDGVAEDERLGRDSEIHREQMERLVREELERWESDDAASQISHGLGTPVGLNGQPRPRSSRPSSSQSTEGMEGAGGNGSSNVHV
Kind of assay: P. pastoris PKD2 Ca2+-dependent yeast growth assay (Stage 1). It is filed as cell-based. The conditions noted are these: P. pastoris strain Y5634; read-out: EC50, yeast growth dependent on stimulation of PKD2 cation transport. From the text: (§1) FIG. 31. […] Top, the screening of each stage. […] Bottom, cilia Ca^2+ responses from cells with PKD2 present and knocked out using CRISPR=Cas9 (N=17 cells each). D, E) Stage 3 (Cilia Electrophysiology): image of a patched cilia from collecting ducts and corresponding PKD2-dependent current activated by NS1643.
(§2) Our screening strategy included three stages. (See FIG. 31). In Stage 1 of our screening assay, we utilized cyst cells in a P. pastoris (strain YS634) PKD2 Ca^2+-dependent yeast growth assay. P. pastoris growth is dependent on induction and stimulation of PKD2 ion transport by test compounds including NS1643, calmidazolium, and W-13. In Stage 2, we measured PKD2 activation by the test compounds using increased ciliary Ca2+ fluorescence and membrane potential from human kidney collecting duct cells in which PKD2 had been knocked out by CRISPR-Cas9. In Stage 3, we assessed activation of polystin-2 dependent currents by the test compounds via imaging of patched cilia from collecting ducts and measuring change in current versus voltage. […] (See FIG. 32).

Assay [3] concerns the target T2, PKD2. Kind of assay: PKD2 conductance assay. The assay is classed as cell-based. From the text:
FIG. 35. Conductance of PKD2 in the presence of test compounds CAS Number 57265-65-3 (calmidazolium (CMZ)), CAS Number 617-27-0 (W-13), and CAS Number 448895-37-2 (NS1643)
We also tested the additional compound CAS Number 57265-65-3 (calmidazolium (CMZ)), the compound CAS Number 617-27-0 (W-13), and NS1643 in a PKD2 conductance assay.

Assay [4] concerns the target T2, PKD2. Kind of assay: Cilia Ca2+ fluorescence (smo-GCaMP3), Stage 2. It is filed as cell-based. Also on record: cilia Ca^2+ responses from cells with PKD2 present and knocked out using CRISPR=Cas9; endogenous in cells; host or cells: human kidney collecting duct cells expressing the smo-GCaMP3 cilia reporter. The conditions noted are these: smo-GCaMP3, human kidney collecting duct cells; read-out: EC50, increased ciliary Ca2+ fluorescence.
From the text: as §1, §2

In assay [5] the target is T2, PKD2. Kind of assay: Cilia electrophysiology of patched cilia from collecting ducts (Stage 3). It is filed as cell-based.
From the text: as §1, §2

The target in assay [6] is T2, PKD2. Kind of assay: Three stage testing strategy for PKD2 activators. The assay is classed as cell-based. To be noted: three screening stages.
From the text: as §1
The polycystin pharmacophore remains outstanding because these channels localize to the primary cilium—an antenna-like organelle that requires innovative tools to study. To address this knowledge gap, our laboratory has established a series of cilia-specific channel activity reporters (voltage and calcium reporters) and model systems (poly cystin-dependent yeast growth) which will be used in a three-stage drug screen to characterize the pharmacology of polycystins. We screened a commercially available chemical library containing 384 compounds for activity against wild type polycystins, and identified three channel activators. […]
Our screening strategy included three stages. […] In Stage 2, we measured PKD2 activation by the test compounds using increased ciliary Ca2+ fluorescence and membrane potential from human kidney collecting duct cells in which PKD2 had been knocked out by CRISPR-Cas9. In Stage 3, we assessed activation of polystin-2 dependent currents by the test compounds via imaging of patched cilia from collecting ducts and measuring change in current versus voltage. […]

Assay [7] concerns the target T3, polycystin-2 (Homo sapiens, UniProt Q13563).
T3 construct: expressed in transfected cells
T3 sequence (Q13563 1-968): T2 sequence (Q13563 1-968)
The assay is classed as cell-based. The conditions noted are these: 10 μM, voltage ramps. From the text: Generation of HEK PKD2^Null cells line and the stable expression PKD2 variants. To generate the HEK PKD2^Null cell lines, we used a CRISPR/Cas9 gene editing kit available from Addgene (kit 1000000055). HEK 293 cells were electro-transfected with sgRNAs (caccg[…] and aaac[…]c) with the All-in-one Cas9 plasmid. […] Cells generated from single cell clones were selected after 4 weeks of expansion in a 96-wells plate. […] To generate the WT and variant PKD2 GFP or mCherry C-terminally tagged variant cell lines, the hPKD gene was subcloned into lentiviral pLVX-mcherry-N1 (Clontech) or pLVX-GFP-N1 (Clontech) vector using the Gibson assembly method. A linker encoding for six glycine residues was added between the PKD2 gene and the C-terminal tags, and missense variants were generated using standard, site-directed mutagenesis. The third-generation lentiviral packaging plasmids used for stable expression contained: pMDLg/pRRE (Addgene), […] pRSV-Rev (Addgene), and envelope expressing plasmid pMD2.G (Addgene). LentiX-293T cells (Takara) were transfected with polyethylineimine (Polysciences) at a 4:1:1:1 ratio of the transgene and viral packaging constructs. Supernatants were collected 48 and 72 hours post transfection and filtered through a 0.45 μm syringe filter. Lentiviral supernatant was concentrated 100 times using 1 volume of PEG-it (System Biosciences) virus precipitation solution and 4 volume of lentivirus-containing supernatant. The PEG-it and supernatant mixture were kept at 4 degrees for 24 hours and centrifuged at 1500 rpm for 30 minutes. The pellet containing lentivirus was resuspended with 1/100th volume of PBS of the original supernatant volume. HEK cells were infected with the lentivirus supernatant; PKD2-GFP or PKD2-mCherry expression was selected using culture media containing puromycin (2 μg/ml) for 30 to 90 days. Cells were then fluorescence-activated cell sorted (BD FacsMelody) at 5000 to 10,000 counts per minute to enrich for the transgene expression. Stable cell lines were cultured in Dulbecco's modified essential medium (DMEM) supplemented with 10% fetal bovine serum (FBS) and 100 units/ml penicillin, 100 units/ml streptomycin and 1 μg/ml puromycin selection antibiotic.
(§3) Electrophysiology. Ciliary ion currents were recorded using borosilicate glass electrodes polished to resistances of 14-22 MΩ using the cilium patch method previously described^32. Whole cell electrodes used to measure poly cystin-2L1 currents were fire polished to 1.5-4 MΩ resistances. Unless otherwise stated, whole cilia ionic currents were recorded in symmetrical [Na^+]. The pipette standard internal solution contained (in mM): 90 NaMES, 10 NaCl, 10 HEPES, 10 Na4-BAPTA (Glycine, N, N′-[1,2-ethanediylbis(oxy-2,1-phenylene)]bis[N-(carboxymethyl)]-,tetrasodium); pH was adjusted to 7.3 using NaOH. Standard bath solution contained 140 NaCl, 10 HEPES, 1.8 CaCl2); pH 7.4. All solutions were osmotically balanced to 295 (±6) mOsm with mannitol. Extracellular solutions containing TCEP and GSH were used within six hours of formulation. Data were collected using an Axopatch 200B patch clamp amplifier, Digidata 1440A, and pClamp 10 software. Whole-cilium and excised patch currents were digitized at 25 kHz and low-pass filtered at 10 kHz. In the whole cilium configuration, the holding potential was −60 mV and then depolarized using a 400 ms voltage ramp from −100 mV to 100 mV. The whole cell recordings of polycystin-2L1 currents were either activated by the same ramp protocol or by 100 ms depolarizations to 100 mV from a −100 mV holding potential.

Assay [8] deals with polycystin-2L1. It is filed as cell-based. To be noted: 10 μM, plasma membrane of HEK cells. The protocol: as §3, with “potential. External conditions were controlled using a Warner Perfusion Fast-Step (SF-77B) system in which the patched cilia and electrode were held in the perfusate stream. Data were analyzed by Igor Pro 7.00 (Wavemetrics, Lake Oswego, Oreg.). The polycystin-2 open probability and the polycystin-2L1 tail current-voltage relationships were fit to a Boltzmann function, f(x)=1/(1+exp[V−V1/2]/k) to estimate voltage of half-maximal activation of current (V1/2).” for “potential.”

Consider `[Zn+2]` [Zn^2+], for which the “Affinity of other divalent ions for polycystin-2 EF hand” value in assay [1] was “did not have affinity”.
Turning to `O=C(Nc1cc(C(F)(F)F)ccc1O)Nc1cc(C(F)(F)F)ccc1O` [NS1643, 1,3-bis[2-hydroxy-5-(trifluoromethyl)phenyl]urea], the EC50 in assay [2] was 1.1 µM; in assay [4] it was 2.3 µM. Moreover, the PKD2 conductance result in assay [3] is “increased PKD2 conductance”. Also, in assay [5], the PKD2-dependent current entry is “activated”. For the same molecule, the “Identification as PKD2 activator” value in assay [6] was “identified as an activator of PKD2 activity; also recorded: exemplary PKD2 activator”.
For the molecule `NCCCCCCNS(=O)(=O)c1cccc2c(Cl)cccc12` [W-13, N-(6-Aminohexyl)-5-chloro-1-naphthalenesulfonamide], the PKD2 conductance entry in assay [3] is recorded as “increased PKD2 conductance”.
Consider `[La]` [lanthanum], for which, in assay [7], the “Block of ciliary WT polycystin-2 currents by trivalent ions” value is given as “blocked”. Moreover, the “Block of polycystin-2L1 currents by trivalent ions” value in assay [8] was “blocked”.
With `[Mg+2]` [Mg^2+], the “Affinity of other divalent ions for polycystin-2 EF hand” value in assay [1] was “did not have affinity”.
